Experimental data published in PubChem BioAssay AID602466 (Sanford-Burnham Center for Chemical Genomics, 2012).
Activity calls are given as the source filed them. No rule for the calls is given here.

Molecular target: Neurotensin receptor type 1 (Homo sapiens) (UniProt P30989)
Test: NTR1 agonist calcium signaling, SAR follow-up, cell-based, fluorescence, calcium flux, single concentration (AID 602466)
Conditions: NTR1-expressing cells, at 30 µM (top of the series)

Neurotensin receptor type 1 (Homo sapiens), sequence (P30989 whole entry, looked up): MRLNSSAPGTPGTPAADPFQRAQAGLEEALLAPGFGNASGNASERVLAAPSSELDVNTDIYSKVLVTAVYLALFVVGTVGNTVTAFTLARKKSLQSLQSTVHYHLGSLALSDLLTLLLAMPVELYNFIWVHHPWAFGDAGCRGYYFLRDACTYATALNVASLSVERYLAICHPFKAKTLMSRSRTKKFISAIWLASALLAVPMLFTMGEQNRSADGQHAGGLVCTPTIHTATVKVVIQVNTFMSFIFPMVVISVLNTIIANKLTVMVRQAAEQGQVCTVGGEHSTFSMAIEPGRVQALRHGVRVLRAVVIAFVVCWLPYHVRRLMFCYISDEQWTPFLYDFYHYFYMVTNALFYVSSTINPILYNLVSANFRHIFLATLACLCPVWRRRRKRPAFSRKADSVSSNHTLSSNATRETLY

activation	Structure (SMILES)
95.3%	COc1cc2c3nnc(-c4ccc(F)cc4)c-3cn(Cc3ccc(F)cc3)c2cc1OC
38.2% (inactive)	COc1cc2c3nnc(-c4ccc(C)c(C)c4)c-3cn(Cc3ccc(F)cc3)c2cc1OC
9.85% (inactive)	COc1cc2nc(C3CCC3)nc(N3CCN(c4ccccc4C)CC3)c2cc1OC
110%	COc1cc2c3nnc(-c4ccc(F)cc4)c-3cn(Cc3ccccc3)c2cc1OC
99.2%	COc1cc2c3nnc(-c4ccc(Cl)cc4)c-3cn(Cc3ccccc3)c2cc1OC
37.2% (inactive)	COc1cc2c3nnc(-c4ccc(F)cc4)c-3cn(Cc3ccccc3N(C)C)c2cc1OC
9.46% (inactive)	Cc1ccc(Cn2cc3c(-c4ccc(F)cc4)nnc-3c3ccccc32)cc1
67.8%	COc1cc2c3nnc(-c4ccc(F)cc4)c-3cn(Cc3ccc(Cl)cc3)c2cc1OC
132%	COc1cc2c3nnc(-c4ccc(C)cc4)c-3cn(Cc3ccc(C)cc3)c2cc1OC
12.4% (inactive)	COc1cccc(OC)c1-c1nc(C(=O)NC2(C(=O)O)C3CC4CC(C3)CC2C4)cn1-c1ccnc2cc(Cl)ccc12 (stereo not given)
102%	COc1cccc(OC)c1-c1nc(C(=O)N[C@@H](CC(C)C)C(=O)O)cn1-c1ccnc2cc(Cl)ccc12
7.03% (inactive)	COc1ccc(-c2nnc3c4cc(OC)c(OC)cc4n(Cc4ccc(C)cc4)cc2-3)cc1
48.7%	COc1cccc(OC)c1-c1cc(C(=O)N[C@@H](CC(C)C)C(=O)O)nn1-c1ccnc2cc(Cl)ccc12
56.6%	COc1ccc(Cn2cc3c(-c4ccc(F)cc4)nnc-3c3cc(OC)c(OC)cc32)cc1
35.9% (inactive)	COc1ccc(-c2nc(C(=O)N[C@@H](CC(C)C)C(=O)O)cn2-c2ccnc3cc(Cl)ccc23)c(OC)c1
90.8%	COc1cc2c3nnc(-c4ccc(C)cc4)c-3cn(Cc3ccc(F)cc3)c2cc1OC
115%	COc1cc2c3nnc(-c4ccc(F)cc4)c-3cn(Cc3ccc(C)cc3)c2cc1OC
37.7%	Cc1cccc(C)c1-c1nc(C(=O)N[C@@H](CC(C)C)C(=O)O)cn1-c1ccnc2cc(Cl)ccc12
39.5% (inactive)	COc1ccc2c(c1)c1nnc(-c3ccc(F)cc3)c-1cn2Cc1ccc(F)cc1
60.6%	COc1cc2nc(-c3ccccc3)nc(N3CCN(c4ccccc4OC)CC3)c2cc1OC
191%	COc1cc2c3nnc(-c4ccc(F)cc4)c-3cn(Cc3cccc(C)c3)c2cc1OC
2.56% (inactive)	COc1cc2c3nnc(-c4ccc(F)cc4)c-3cn(Cc3ccc(OC(F)(F)F)cc3)c2cc1OC
131%	COc1cc2c3nnc(-c4ccc(C)c(C)c4)c-3cn(Cc3ccc(C)cc3)c2cc1OC
110%	COc1cccc(OC)c1-c1nc(C(=O)N[C@@H](CC(C)C)C(=O)O)cn1-c1cccc2ccccc12
13.4% (inactive)	Cc1ccc(Cn2cc3c(-c4ccc(F)cc4)nnc-3c3cc4c(cc32)OCO4)cc1
55%	COc1cc2c3nnc(-c4ccccc4)c-3cn(Cc3ccccc3)c2cc1OC
11.9%	COc1ccccc1-c1cc(C(=O)N[C@@H](CC(C)C)C(=O)O)nn1-c1ccnc2cc(Cl)ccc12
17.5% (inactive)	COc1cc2nc(C)nc(N3CCN(c4ccccc4OC)CC3)c2cc1OC
10.2% (inactive)	COc1ccc2c(c1)c1nnc(-c3ccc(F)cc3)c-1cn2Cc1ccccc1
187%	COc1cc2c3nnc(-c4ccc(Cl)cc4)c-3cn(Cc3ccc(F)cc3)c2cc1OC
